ChEMBL document CHEMBL1124488 (J Med Chem, 1989)
pIC50: −log10 of the molar value.

Molecular target: Mu-type opioid receptor (Cavia porcellus, UniProt P97266)
Assay: Inhibitory activity against opioid receptor mu of guinea pig brain using [3H]DAGO radioligand

Chain of Mu-type opioid receptor (P97266 whole entry): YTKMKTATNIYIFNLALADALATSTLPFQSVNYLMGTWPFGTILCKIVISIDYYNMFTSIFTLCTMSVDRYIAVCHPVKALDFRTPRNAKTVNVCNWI

CN1CC[C@]23CCCC[C@H]2[C@H]1Cc1ccc(O)cc13 [LEVORPHANOL]
pIC50: 9.22
